Laboratory results reported in patent publication US20250041313A1, “COMBINATION THERAPY FOR TREATMENT OF CANCER” (CITY OF HOPE, priority 2023, published 2025).

Columns and labels:
[1] = cited from earlier work
SBC5 xenograft = test: SBC5 mouse xenograft, Carbo/Leflu study; type: in vivo; details: Carbo 50 mg/kg, Leflu 7.5 mg/kg, i.p. twice a week
Description: Athymic nude nu/nu mice were obtained from Charles River, Wilmington, MA, and were acclimated for a week before beginning the experiment. All animal experiments were carried out in accordance with a protocol approved by the Institutional Animal Care and Use Committee COH (IACUC #16004). For treatments, mice were divided into 4 groups with five mice per group and subcutaneously injected into one flank with 2×10^6 SBC3 or SBC5 cells suspensions in 100 μl of PBS. Treatment started on the 14th day when tumors became palpable. Two in vivo studies were done in this project. SBC3 and SBC 5 xenograft with i) vehicle control, ii) […] 50 mg/kg, iii) Leflu 7.5 mg/kg, and iv) […]/Leflu. SBC3 with i) vehicle control, ii) Lur 0.5 mg/kg, iii) Leflu 3.8 mg/kg, and iv) Lur/Leflu. Treatments were given to mice via i.p. twice a week for 6 weeks. Animals were examined daily for signs of tumor growth. Tumors were measured in two dimensions using calipers and body weights were recorded. Animals were photographed on days 1, 5, 10, 15, 20, 25, 30, 35, and 40 after treatment. Tumors were removed on day 40 and photographed. At the end of the study, the mice were euthanized by CO2 asphyxiation followed by cervical dislocation. The tumor weights were compared between groups using an unpaired Student's t-test. […] Mean immunofluorescence intensities were calculated with ZEN 2.3 Lite software.

SBC3 spheroids = test: Immunoblotting of spheroid lysates; type: cell-based, human
Description: (§1) SCLC total cell lysates were prepared using RIPA (radioimmunoprecipitation assay lysis buffer) lysis buffer. Protein concentration was determined using DC Protein Assay Kit Bio-Rad (Hercules, CA). Samples were then run on SDS-PAGE in 4-15% polyacrylamide gels and transferred onto Immobilon membranes (Millipore, MO), blocked, incubated with specific primary antibodies at 4° C. overnight, and subsequently developed with secondary antibodies. The following primary antibody were used: pan-Actin, Phospho-DRP1 (Ser^616), Phospho-DRP1 (Ser^637), Histone H2B (V^119), Phospho-Histone H2A.X (Ser^139), Phospho-P53 (Ser^15), P-53, Cleaved PARP (Asp^214) (D64E10), Phospho-Chk1 (Ser^345) (133D3) and p21 were from Cell Signaling Technology (City of Industry, CA), β-Actin (Sigma-Aldrich, St. Luis, MO), Phospho RNA Polymerase II (S2) antibody (Bethyl Lab, Montgomery, TX), RNA Polymerase II CTD4H8 (BioLegend, San Diego, CA), DHODH (E-8), DRP1 (C-5), GAPDH (0411), c-Myc (9E10), Tom20 (F-10), FisI (B-5), OPA1 (D-9), antibodies from Santa Cruz Biotechnology (Dallas, TX) and MFN2 (Abcam, Boston, MA) and Chk1, MDM2, Cyclin CDK4 and D1, and E2F1 (Proteintech, Rosemont, IL).
(§2) SBC3 and H446 cells were plated at a density of 10,000 cells per well in 96-well ULA round-bottomed plates (S-Bio, Hudson, NH) and incubated for 72 h at 37° C., 5% CO2, and 95% humidity. Spheroids were transferred to low cell attachment dishes, grown for two days, and treated with drug. After treatment, spheroid samples were run with Western blot assay. For spheroid mitochondria visualization, they were stained with 250 nM MitoTracker® Red CMXRos and Hoechst from ThermoFisher Scientific (Waltham, MA) for 2 h after drug treatment. Spheroids were washed, fixated with 4% PFA, transferred into 96-well flat glass-bottom black microplate (Cellvis, Mountain View, CA), and mounted in wells.

H446 spheroids = test: Spheroid LDH cytotoxicity/death assay; type: cell-based, human; details: 72 h
Description: as §2
LDH activity was measured using LDH Cytotoxicity Assay Kit following the manufacturer protocol (Thermo Fisher Scientific, Waltham, MA). Briefly, H446 and SBC3 spheroids after 72 hours of drug treatments were mixed with 10 μl 10× lysis buffer and incubated for 45 min in cell culture incubator. 50 μl of lysed cells from each sample were used to measure absorbance by plate reader (Tecan Spark 10, Salzburg, Austria). Percentage of cell cytotoxicity/death was calculated by using the following formula: […]

SCLC = details: relapsed / second-line SCLC patients; cited from earlier work
SBC3 cells = test: Immunoblotting of cell lysates (pDRP1, p53, DNA damage markers); type: cell-based, human
Description: as §1

[2] = test system: pDRP1 (Ser616) in SBC5 cells; test: pDRP1 Ser616 immunofluorescence staining, QuPath; type: cell-based, human; details: SBC5, Teri overnight
Description: (§3) SBC3 and SBC5 cells were grown on glass coverslips and treated with Teri overnight. Next, cells were fixed in 4% paraformaldehyde, permeabilized, and blocked before incubating with pDRP1 (Ser^616) antibody followed by Alexa 488 secondary antibody. This was followed by staining with Tom20 (F-10) antibody. A far-red dye was used for cytoplasmic staining. Fluorescent images were acquired on an Axio Observer 7 inverted microscope (Carl Zeiss, Jena, Germany). Nuclei and DRP1 were stained with DAPI and Alexa 488 secondary antibody. All imaging was performed using a 40×/0.95 NA Plan-Apochromat objective with a final per pixel scaling of 0.147 by 0.147 microns. Within each 3×3 field of image view (>200 cells per image), QuPath 0.2.0M9 was used to detect cell nuclei, a cytoplasmic area around the nucleus was expanded for analysis, followed by limiting the area of that blind expansion based on the presence of the cytoplasmic dye. […] The mean pDRP1 signal intensity was then measured within that area. The green intensity sum of these areas was calculated per cell and then averaged for each sample image.
(§4) Additionally, SBC3 and SBC5 cells were stained with pDRP1 Ser^616 antibody (2° ab Alexa488), and the phosphorylation level was analyzed with QuPath 0.2.0M9 software.

[3] = test system: pDRP1 (Ser616) in SBC3 cells; test: pDRP1 Ser616 immunofluorescence staining, QuPath; type: cell-based, human; details: SBC3, Teri overnight
Description: as §3, §4

Structure (SMILES): Cc1oncc1C(=O)Nc1ccc(C(F)(F)F)cc1 [Leflunomide, leflunomide]
- safety profile ([1]; up to 40 mg/day, patients with Wegner's granulomatosis): safety profile like the 20 mg/day dose
- time to attain steady state concentrations ([1]; without a loading dose, estimated, FDA label): two
- final tumor weight (day 40) (SBC5 xenograft): 1.49 ± 0.20 g

Structure (SMILES): COc1ccc2[nH]c3c(c2c1)CCN[C@]31CS[C@@H]2c3c(OC(C)=O)c(C)c4c(c3[C@H](COC1=O)N1[C@@H]2[C@H]2c3c(cc(C)c(OC)c3O)C[C@@H]([C@@H]1O)N2C)OCO4 [Lurbinectedin, lurbinectedin]
- p21 level (SBC3 spheroids): upregulated
- percentage of dead cells (H446 spheroids): significantly increased
- ORR (SCLC): 32.7%
- median PFS (SCLC): 3.5 months

Structure (SMILES): C/C(O)=C(\C#N)C(=O)Nc1ccc(C(F)(F)F)cc1 [Teriflunomide, teriflunomide]
- ratio of pDRP1 (Ser616) to pDRP1 (Ser637) (SBC3 cells; SBC3, densitometry): significantly decreased in a dose-dependent manner
- DRP1 expression level (SBC3 cells; SBC3, immunoblot): unaffected
- DRP1 phosphorylation at Ser616, and Ser637 (SBC3 cells; SBC3, immunoblot): significantly inhibited
- pDRP1 Ser616 green IF signal intensity [2]: significant signal intensity decreased
- pDRP1 Ser616 green IF signal intensity [3]: significant signal intensity decreased
